This passage reports IC50 results from patent publication US5891917A, “Certain acrylonitrile-sulfonamide derivatives” (Sugen, Inc., priority 1997, dated 1999).

Assay [1] has as its target T1, IGF-1R (Homo sapiens, UniProt P08069).
T1 construct: expressed in transfected cells; host or cells: 3T3/IGF-1R (mouse NIH 3T3 line overexpressing IGF-1R)
Description: Cellular IGF-1 Receptor ELISA. As to conditions: 3T3/IGF-1R cells, 20 nM IGF-1. Type of assay: cell-based. Here is the method: Cellular IGF-1 Receptor ELISA (Version I)
(1). The cell line used in this assay is 3T3/IGF-1R, a cell line which overexpresses IGF-1 Receptor.
(2). 3T3/IGF-1R is grown in an incubator with 5% CO2 at 37° C. The growth media is DMEM+10% FBS (heat inactivated)+2mM L-Glutamine.
(3). For ELISA plate coating, the anti-IGF-1R antibody named 17-69 is used. Antibodies are purified by the Enzymology Lab, SUGEN, Inc.
(10). Insulin-like growth factor-1 from Promega (Cat# G5111).
(11). Polyclonal antiserum Anti-phosphotyrosine:
(1). The cells, grown in tissue culture dish (10 cm, Corning 25020-100) to 80-90% confluence, are harvested with Trypsin-EDTA (0.25%, 0.5 ml/D-100, GIBCO).
(2). Resuspend the cells in fresh DMEM +10% FBS+2 mM L-Glutamine, and transfer to 96-well tissue culture plate (Corning, 25806-96) at 20,000 cells/well (100 ul/well). Incubate for 1 day then replace medium to serum-free medium (90/ul) and incubate in 5% CO2 and 37° C. overnight.
(1). Coat the ELISA plate (Corning 25805-96) with Anti-IGF-1R Antibody at 0.5 ug/well in 100 ul PBS at least 2 hours. (2). Remove the coating solution, and replace with 100 ul Blocking Buffer, and shake for 30 minutes. Remove the blocking buffer and wash the plate just before adding lysate.
(1). The drugs are tested in serum-free condition.
(2). Dilute drug stock (in 100% DMSO) 1:10 with DMEM in 96-well poly-propylene plate, and transfer 10 ul/well of this solution to the cells to achieve final drug dilution 1:100, and final DMSO concentration of 1.0%. Incubate the cells in 5% CO2 at 37° C. for 2 hours.
(3). Prepare fresh cell lysis buffer (HNTG HNTG 2 ml EDTA 0.1 ml Na3VO4 0.1 ml Na4P2O7 0.1 ml H20 7.3 ml HNTG* 10 ml.
(4). After drug incubation for two hours, transfer 10 ul/well of 200nM IGF-1 Ligand in PBS to the cells (Final Conc=20 nM), and incubate at 5% CO2 at 37° C. for 10 minutes.
(5). Remove media and add 100 ul/well HNTG* and shake for 10 minutes. Look at cells under microscope to see if they are adequately lysed.
(6). Use a 12-channel pipette to scrape the cells from the plate, and homogenize the lysate by repeat aspiration and dispense. Transfer all the lysate to the antibody coated ELISA plate [V.2.(2)], and shake for 1 hour.
(7). Remove the lysate, wash the plate, transfer anti-pTyr (1:3,000 with TBST) 100 ul/well, and shake for 30 minutes.
(7). Remove anti-pTyr, wash the plate, transfer detection antibody (1:3,000 with TBST) 100 ul/well, and shake for 30 minutes.
(8). Remove detection antibody, wash the plate, and transfer fresh ABTS/H2O2 (1.2 ul H2O2 to 10 ml ABTS) 100 ul/well to the plate to start color development.
(9). Measure OD (410 nm) in Dynatec MR5000, which is connected to Ingres.

Assay [2] relates to MCF7/HER2 cells. The assay is described as follows: MCF-7/HER-2 SRB Growth Assay. Type of assay: cell-based. The note with it: Homo sapiens, read-out: Growth Data: MC7/HER2 (0.5% FBS). From the text:
The following examples illustrate the ability of the exemplary compounds to inhibit receptor tyrosine kinases, such as HER2 and/or EGFR. The following target cells were used for cellular kinase assays: NIH3T3 clone C7 (Honegger et al., supra) engineered to over-express human EGF receptor; NIH3T3 cells engineered to over-express a chimeric receptor containing the EGFR extracellular domain and the HER2 intracellular kinase domain; the human mammary carcinoma line BT474 (ATCC HTB2) expressing HER2; and the human glioblastoma line U1242 that expresses PDGFR-beta. Growth assays were carried out using human mammary epithelial SKBR3 (ATCC HTB30) cells (SKBR3 cells over-express HER2), SKOV3 (ATCC HTB77) human ovarian cancer cell line (SKOV3 cells also over-express HER2), A431 cells (A431 cells over-express EGFR) MCF7 human breast carcinoma cells, MCF7 cells overexpressing the HER2 kinase (MCF7-HER2), NIH3T3 cells, and NIH3T3 cells overexpressing the HER2 kinase (3T3-HER2.
MCF-7/HER-2 SRB Growth Assay
The protocol is basically the same as that above (for the MCF-7 Growth Assay) except that immediately before the 30 compound is added, the normal growth media is removed and 0.5% FBS/RPMI supplemented with 2 mM Glutamine is added onto the cells. The compound is also prepared in this 0.5% serum media. The plate of cells is incubated for four days and developed as usual.

Molecules are shown by their SMILES.

T1 sequence (P08069 741-1367 limits assumed): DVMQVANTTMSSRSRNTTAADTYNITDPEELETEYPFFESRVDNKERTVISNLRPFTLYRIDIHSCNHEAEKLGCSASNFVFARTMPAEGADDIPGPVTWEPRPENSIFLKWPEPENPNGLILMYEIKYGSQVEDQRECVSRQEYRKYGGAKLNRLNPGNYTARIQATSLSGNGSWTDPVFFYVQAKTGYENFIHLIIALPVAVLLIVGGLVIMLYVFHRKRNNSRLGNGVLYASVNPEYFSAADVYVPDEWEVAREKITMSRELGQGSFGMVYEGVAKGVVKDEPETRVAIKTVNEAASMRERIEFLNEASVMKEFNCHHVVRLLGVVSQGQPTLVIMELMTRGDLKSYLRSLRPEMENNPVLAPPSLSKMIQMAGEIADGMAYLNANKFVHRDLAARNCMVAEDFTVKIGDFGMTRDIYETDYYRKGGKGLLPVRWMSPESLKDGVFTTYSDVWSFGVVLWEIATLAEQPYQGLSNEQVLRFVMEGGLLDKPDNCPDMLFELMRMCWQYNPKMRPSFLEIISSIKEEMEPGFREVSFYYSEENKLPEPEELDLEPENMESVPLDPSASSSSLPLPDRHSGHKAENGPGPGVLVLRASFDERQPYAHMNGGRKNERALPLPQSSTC
T1 sequence (P08069 31-736 partner limits assumed): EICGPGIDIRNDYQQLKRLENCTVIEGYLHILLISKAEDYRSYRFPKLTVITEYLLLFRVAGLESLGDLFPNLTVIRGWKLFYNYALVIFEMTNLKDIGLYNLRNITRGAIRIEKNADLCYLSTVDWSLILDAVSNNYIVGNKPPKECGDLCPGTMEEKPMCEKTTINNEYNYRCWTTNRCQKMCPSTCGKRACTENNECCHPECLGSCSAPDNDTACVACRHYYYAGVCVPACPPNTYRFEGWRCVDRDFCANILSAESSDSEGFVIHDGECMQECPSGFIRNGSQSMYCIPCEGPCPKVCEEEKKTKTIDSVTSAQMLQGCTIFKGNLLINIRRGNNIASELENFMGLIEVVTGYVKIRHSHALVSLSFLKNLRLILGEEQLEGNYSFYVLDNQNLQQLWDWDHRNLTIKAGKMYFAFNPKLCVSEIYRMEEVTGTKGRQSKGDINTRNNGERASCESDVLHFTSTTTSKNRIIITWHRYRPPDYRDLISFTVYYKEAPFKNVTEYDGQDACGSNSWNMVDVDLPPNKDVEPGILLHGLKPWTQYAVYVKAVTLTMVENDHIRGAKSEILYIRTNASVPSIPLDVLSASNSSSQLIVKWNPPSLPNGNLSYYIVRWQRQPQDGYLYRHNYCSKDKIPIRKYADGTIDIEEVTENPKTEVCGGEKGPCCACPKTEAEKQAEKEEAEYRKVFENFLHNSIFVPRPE

As for `CC(C)c1cc(/C=C(\C#N)S(=O)(=O)NCc2ccccc2)cc(C(C)C)c1O` [Compound 732], the IC50 turned out to be 11.8 µM in assay [1] and 2.5 µM in assay [2].

In the case of `N#C/C(=C\c1ccc(O)c(O)c1)S(=O)(=O)c1cccs1` [Compound 743, (E)-3-(3,4-Dihydroxyphenyl)-2-[(thien-2-yl)sulfonyl]acrylonitrile], the IC50 in assay [1] is more than 100 µM.

Consider `CC(C)(C)c1cc(/C=C(\C#N)S(=O)(=O)c2ccc(F)cc2)cc(C(C)(C)C)c1O` [Compound 740], for which the IC50 in assay [1] is more than 100 µM; in assay [2], 0.007 µM.

As to `CC(C)c1cc(/C=C(\C#N)S(=O)(=O)c2ccc(F)cc2)cc(C(C)C)c1O` [Compound 741, (E)-3-(3,5-Diisopropyl-4-hydroxyphenyl)-2-(4-fluorophenylsulfonyl)acrylonitrile], the IC50 in assay [1] was 28.3 µM; in assay [2], 1 µM.

For `N#C/C(=C\c1ccc(O)cc1Cl)S(=O)(=O)NCc1ccccc1` [Compound 733], the values for the IC50 in assay [1] and in assay [2] were more than 100 µM and 16 µM, respectively.

On to `CC(C)(C)c1cc(/C=C(\C#N)S(=O)(=O)c2cccs2)cc(C(C)(C)C)c1O` [Compound 742], for which the IC50 in assay [1] is more than 100 µM; in assay [2], 0.2 µM.

With `Cc1cc(/C=C(\C#N)S(=O)(=O)Cc2cccc(C(F)(F)F)c2)cc(C)c1O` [Compound 739], the values for the IC50 in assay [1] and in assay [2] were more than 100 µM and 14 µM, respectively.

In the case of `Cc1cc(/C=C(\C#N)S(=O)(=O)c2ccccc2)cc(C)c1O` [Compound 748], the IC50 in assay [1] was more than 100 µM; in assay [2], 46 µM.

As to `Cc1cc(/C=C(\C#N)S(=O)(=O)c2ccc(F)cc2)cc(C)c1O` [Compound 744], the IC50 in assay [1] was more than 100 µM; in assay [2], 46 µM.

`CC(C)c1cc(/C=C(\C#N)S(=O)(=O)/C(C#N)=C/c2cc(C(C)C)c(O)c(C(C)C)c2)cc(C(C)C)c1O` [Compound 745] displayed an IC50 in assay [1] of 69 µM.

As to `N#C/C(=C\c1ccc(O)cc1Cl)S(=O)(=O)NCCCc1ccccc1` [Compound 734], the results for the IC50 in assay [1] and in assay [2] were 93.9 µM and 7 µM, respectively.

`CC(C)c1cc(/C=C(\C#N)S(=O)(=O)c2ccccc2)cc(C(C)C)c1O` [Compound 731]: the IC50 in assay [1] was 29.2 µM; in assay [2], 1 µM.

Turning to `CC(C)(C)c1cc(/C=C(\C#N)S(=O)(=O)c2ccsc2)cc(C(C)(C)C)c1O` [Compound 746], the figures for the IC50 in assay [1] and in assay [2] were more than 100 µM and 0.3 µM, respectively.

Consider `CC(C)c1cc(/C=C(\C#N)S(=O)(=O)c2ccsc2)cc(C(C)C)c1O` [Compound 738], for which the IC50 is more than 100 µM in assay [1] and 3 µM in assay [2].

On to `CC(C)c1cc(/C=C(\C#N)S(=O)(=O)Cc2cccc(C(F)(F)F)c2)cc(C(C)C)c1O` [Compound 736], for which the IC50 in assay [1] was 19 µM; in assay [2], 1 µM.

Turning to `CC(C)c1cc(/C=C(\C#N)S(=O)(=O)c2cccs2)cc(C(C)C)c1O` [Compound 737], the IC50 in assay [1] was 93.5 µM; in assay [2] it was 3 µM.

For `CC(C)c1cc(/C=C(\C#N)S(=O)(=O)c2ccccn2)cc(C(C)C)c1O` [Compound 747], the IC50 in assay [1] was more than 100 µM; in assay [2] it was 26 µM.

`CC(C)(C)c1cc(/C=C(\C#N)S(=O)(=O)Cc2cccc(C(F)(F)F)c2)cc(C(C)(C)C)c1O` [Compound 735]: the IC50 in assay [1] is more than 100 µM; in assay [2], 0.5 µM.
